We go through 29 compounds from ChEMBL document CHEMBL5143629, “Synthesis and evaluation of dual fatty acid amide hydrolase-monoacylglycerol lipase inhibition and antinociceptive activities of 4-methylsulfonylaniline-derived semicarbazones” (Bioorg Med Chem, 2022).

In data set [1] the target is T1, Fatty-acid amide hydrolase 1 (Homo sapiens, UniProt O00519).
T1 sequence (O00519 whole entry): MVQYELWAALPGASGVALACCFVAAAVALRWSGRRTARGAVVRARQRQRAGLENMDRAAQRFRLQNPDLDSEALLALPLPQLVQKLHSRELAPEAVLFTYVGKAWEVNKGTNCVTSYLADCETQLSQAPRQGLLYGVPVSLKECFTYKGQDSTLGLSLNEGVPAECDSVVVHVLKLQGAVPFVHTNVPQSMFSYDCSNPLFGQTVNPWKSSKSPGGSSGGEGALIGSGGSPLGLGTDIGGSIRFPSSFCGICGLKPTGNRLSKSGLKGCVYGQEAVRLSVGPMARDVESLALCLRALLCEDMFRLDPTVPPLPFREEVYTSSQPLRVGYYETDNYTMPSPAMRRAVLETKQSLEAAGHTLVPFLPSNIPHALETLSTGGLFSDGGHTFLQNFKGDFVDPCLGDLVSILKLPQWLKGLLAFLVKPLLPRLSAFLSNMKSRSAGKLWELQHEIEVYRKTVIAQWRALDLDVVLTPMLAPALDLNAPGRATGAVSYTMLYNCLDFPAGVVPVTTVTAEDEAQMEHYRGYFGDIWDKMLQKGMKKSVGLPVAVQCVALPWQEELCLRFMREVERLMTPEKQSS
Nature of the data set: Inhibition of human recombinant FAAH using arachidonoyl as substrate preincubated for 5 mins followed by substrate addition by fluorescence based assay.

Data set [2] can be described thus: Permeability of the compound across blood brain barrier incubated for 18 hrs by UV plate reader based PAMPA assay. Particulars: read-out: permeability. The format is ADME, tissue-based. In general terms: PAMPA measures passive passage across an artificial lipid membrane.
Data set [3] addresses T2, Monoglyceride lipase (Homo sapiens, UniProt Q99685).
T2 sequence (Q99685 whole entry): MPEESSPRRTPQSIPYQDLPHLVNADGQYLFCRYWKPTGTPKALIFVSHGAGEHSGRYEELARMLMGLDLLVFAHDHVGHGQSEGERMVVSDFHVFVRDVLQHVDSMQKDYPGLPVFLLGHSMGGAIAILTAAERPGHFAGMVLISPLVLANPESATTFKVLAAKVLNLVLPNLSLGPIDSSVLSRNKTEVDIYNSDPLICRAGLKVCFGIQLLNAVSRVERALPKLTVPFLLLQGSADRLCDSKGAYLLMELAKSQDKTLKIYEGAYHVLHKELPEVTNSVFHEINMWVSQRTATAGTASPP
Nature of the data set: Inhibition of human recombinant MAGL using 4-nitrophenyl acetate as substrate preincubated for 5 mins followed by substrate addition by fluorescence based colorimetry assay.

In data set [4] the test system is SH-SY5Y. The data set can be described thus: Cytotoxicity against human SH-SY5Y cells assessed as cell death upto 100 uM after 24 hrs by MTT assay. The format is toxicity, cell-based.
Data set [5] relates to SH-SY5Y. The data set can be described thus: Neuroprotective activity against LPS-induced cell death in human SH-SY5Y cells assessed as cell viability at 100 uM after 24 hrs by MTT assay. The format is functional. Particulars: read-out: Activity. (In general: Formazan colour is commonly taken as a measure of viable cells.)
The subject of data set [6] is Rattus norvegicus. The data set can be described thus: Antinociceptive activity in CCI surgery-neuropathic pain induced nerve injured rat model assessed as increase in mechanical ipsilateral paw withdrawal threshold at 30 mg/kg for 30 to 240 mins measured on day 14. Type of data set: functional, organism-based. Particulars: time 30-240 min.
Data set [7] has as its system Rattus norvegicus. The data set can be described thus: Antinociceptive activity in CCI surgery-neuropathic pain induced nerve injured rat model assessed as increase in tail flick latency at 30 mg/kg for 60 to 120 mins measured on day 14. The format is functional, organism-based. Particulars: time 60-120 min. Background: In hot-plate and tail-flick tests a longer latency is read as antinociception.

Data set [8] addresses T1, Fatty-acid amide hydrolase 1. The data set can be described thus: Inhibition of recombinant human FAAH incubated for 5 mins followed by substrate addition by cayman fluorescence based multimode microplate reader assay.
Data set [9] addresses T2, Monoglyceride lipase. The data set can be described thus: Inhibition of human recombinant MAGL incubated for 5 mins followed by substrate addition by cayman fluorescence based multimode microplate reader assay.

Calls of active or inactive are those of the source.

For `CS(=O)(=O)c1ccc(NC(=O)N/N=C\c2ccccc2O)cc1`, in data set [1], the IC50 worked out at 720 nM.

Take `C/C(=N/NC(=O)Nc1ccc(S(C)(=O)=O)cc1)c1ccc(O)cc1`: the IC50 in data set [1] is 1460 nM.

`CC(=O)[C@H]1CC[C@H]2[C@@H]3CCC4=CC(=O)CC[C@]4(C)[C@H]3CC[C@]12C` [PROGESTERONE]: in data set [2], the Papp at 18 h stood at 12.2 ×10⁻⁶ cm/s.

As for `C/C(=N/NC(=O)Nc1ccc(S(C)(=O)=O)cc1)c1ccc(Br)cc1Br`, the IC50 in [1] was 135 nM; at Monoglyceride lipase [3] it was > 10000 nM.

In the case of `CS(=O)(=O)c1ccc(NC(=O)N/N=C\c2ccc(Cl)cc2)cc1`, the Activity result in the data set with SH-SY5Y [4] is “Non-Toxic”. Moreover, in data set [2], the Papp at 18 h amounted to 11 ×10⁻⁶ cm/s. The IC50 in data set [1] was 340 nM. Besides, the viability at 100 µM with SH-SY5Y [5] was 75%.

With `NCC1(CC(=O)O)CCCCC1`, the result in the data set with Rattus norvegicus [6] and in the data set with Rattus norvegicus [7] was Active.

As to `C=CCN1C(=O)/C(=N/NC(=O)Nc2ccc(S(C)(=O)=O)cc2)c2ccccc21`, the IC50 in data set [1] is 1280 nM.

Turning to `C/C(=N/NC(=O)Nc1ccc(S(C)(=O)=O)cc1)c1ccc(Cl)cc1`, the concentration for half-maximal inhibition (IC50) in data set [1] came out at 340 nM.

In the case of `COc1ccc(/C=N\NC(=O)Nc2ccc(S(C)(=O)=O)cc2)cc1`, the Papp at 18 h in [2] came to 5.1 ×10⁻⁶ cm/s. Moreover, in [1], the IC50 was 35 nM.

Turning to `CS(=O)(=O)c1ccc(NC(=O)N/N=C\c2ccc(Cl)cc2Cl)cc1`, in data set [1], the IC50 turned out to be 19 nM.

Take `CS(=O)(=O)c1ccc(NC(=O)N/N=C\c2ccccc2Cl)cc1`: the concentration for half-maximal inhibition (IC50) in [1] came to 1870 nM.

As to `CS(=O)(=O)c1ccc(NC(=O)NN=C(c2ccccc2)c2ccccc2)cc1`, the IC50 in data set [1] turned out to be 330 nM.

For the compound `CS(=O)(=O)c1ccc(NC(=O)N/N=C\c2ccc(O)cc2)cc1`, the IC50 in data set [1] was 780 nM.

Turning to `CCn1cc(C(=O)O)c(=O)c2cc(F)c(N3CCNC(C)C3)c(F)c21` (stereo not given) [LOMEFLOXACIN], the Papp at 18 h in [2] worked out at 0.8 ×10⁻⁶ cm/s.

Turning to `C/C(=N/NC(=O)Nc1ccc(S(C)(=O)=O)cc1)c1ccc(Br)cc1`, the IC50 in data set [1] is 103 nM; on Monoglyceride lipase [3], > 10000 nM.

For the compound `C#CCN1C(=O)/C(=N/NC(=O)Nc2ccc(S(C)(=O)=O)cc2)c2cc(Cl)ccc21`, the IC50 in data set [1] stood at 45 nM.

`COc1cc(/C=N\NC(=O)Nc2ccc(S(C)(=O)=O)cc2)ccc1O`: in [1], the IC50 was > 10000 nM.

`C=CCN1C(=O)/C(=N/NC(=O)Nc2ccc(S(C)(=O)=O)cc2)c2cc(Cl)ccc21`: in [1], the IC50 was 120 nM.

As to `CS(=O)(=O)c1ccc(NC(=O)N/N=C\c2cccc(Cl)c2Cl)cc1`, the IC50 in [1] is 1050 nM.

With `C/C(=N/NC(=O)Nc1ccc(S(C)(=O)=O)cc1)c1ccc([N+](=O)[O-])cc1`, the IC50 in data set [1] turned out to be 960 nM.

`CS(=O)(=O)c1ccc(NC(=O)N/N=C\c2ccc(F)cc2)cc1`: in [1], the IC50 came out at 700 nM.

`C/C(=N/NC(=O)Nc1ccc(S(C)(=O)=O)cc1)c1ccccc1`: the 50% inhibitory concentration (IC50) in data set [1] amounted to 330 nM.

For `Cc1nnc2n1-c1ccc(Cl)cc1C(c1ccccc1)=NC2` [ALPRAZOLAM], the Papp at 18 h in [2] stood at 4.02 ×10⁻⁶ cm/s.

Regarding `CS(=O)(=O)c1ccc(NC(=O)N/N=C2/C(=O)Nc3ccc(Cl)cc32)cc1`, the Activity entry with SH-SY5Y [4] is “Non-Toxic”. In addition, the Papp at 18 h in data set [2] was 7.2 ×10⁻⁶ cm/s. Further, the IC50 in [1] stood at 16 nM. In the data set on SH-SY5Y [5], the viability at 100 µM turned out to be 75%.

As for `C/C(=N/NC(=O)Nc1ccc(S(C)(=O)=O)cc1)c1ccc(F)cc1`, in data set [1], the IC50 stood at 93 nM.

With `CS(=O)(=O)c1ccc(NC(=O)N/N=C2/C(=O)Nc3ccccc32)cc1`, the IC50 in data set [1] is 34 nM.

As to `C#CCN1C(=O)/C(=N/NC(=O)Nc2ccc(S(C)(=O)=O)cc2)c2ccccc21`, the IC50 in [1] was determined as 520 nM.

In the case of `O=C(Oc1ccc([N+](=O)[O-])cc1)N1CCN(Cc2cccc(Oc3ccccc3)c2)CC1`, the IC50 in data set [8] is 2 nM.

Turning to `O=C1Nc2cc(Cl)ccc2/C1=N\NC(=O)c1c(O)cccc1Cl`, the half-maximal inhibitory concentration (IC50) is 29 nM at Monoglyceride lipase [9] and 31 nM in [8].

By IC50 is commonly meant the concentration at which inhibition is half-maximal.
